Experimental data taken from PubChem BioAssay (NCI).
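Values below derive from 48-hour exposures of cells grown in 96-well plates, with endpoints linearly interpolated between the two concentrations bracketing the appropriate inhibition level. At the TGI there is no net growth.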

Experiments:
Assay in all cases: growth of human tumour cells (NCI), 48 h
HOP-92 NSCLC = tested on: HOP-92 NSCLC
LOX IMVI melanoma = tested on: LOX IMVI melanoma
BT-549 breast = tested on: BT-549 breast
MCF7 breast = tested on: MCF7 breast
M14 melanoma = tested on: M14 melanoma
MOLT-4 leukemia = tested on: MOLT-4 leukemia
HOP-62 NSCLC = tested on: HOP-62 NSCLC
NCI-H460 lung = tested on: NCI-H460 lung
MDA-MB-435 = tested on: MDA-MB-435
OVCAR-4 ovarian = tested on: OVCAR-4 ovarian
EKVX NSCLC = tested on: EKVX NSCLC
CCRF-CEM leukemia = tested on: CCRF-CEM leukemia
SR leukemia = tested on: SR leukemia
UO-31 renal = tested on: UO-31 renal
SNB-19 CNS = tested on: SNB-19 CNS
NCI-H522 lung = tested on: NCI-H522 lung
HT29 colon = tested on: HT29 colon
MDA-MB-231 breast = tested on: MDA-MB-231 breast
HCT-15 colon = tested on: HCT-15 colon
SK-MEL-5 melanoma = tested on: SK-MEL-5 melanoma
T-47D breast = tested on: T-47D breast
SN12C renal = tested on: SN12C renal
ACHN renal = tested on: ACHN renal
OVCAR-8 ovarian = tested on: OVCAR-8 ovarian
CAKI-1 renal = tested on: CAKI-1 renal
786-0 renal = tested on: 786-0 renal
HCC-2998 colon = tested on: HCC-2998 colon
K-562 leukemia = tested on: K-562 leukemia
TK-10 renal = tested on: TK-10 renal
PC-3 prostate = tested on: PC-3 prostate
UACC-257 melanoma = tested on: UACC-257 melanoma
UACC-62 melanoma = tested on: UACC-62 melanoma
U251 CNS = tested on: U251 CNS
SK-MEL-2 melanoma = tested on: SK-MEL-2 melanoma
OVCAR-3 ovarian = tested on: OVCAR-3 ovarian
SK-OV-3 ovarian = tested on: SK-OV-3 ovarian
COLO 205 colon = tested on: COLO 205 colon
RXF 393 renal = tested on: RXF 393 renal
NCI-H23 lung = tested on: NCI-H23 lung
SW-620 colon = tested on: SW-620 colon
A498 renal = tested on: A498 renal
SF-268 CNS = tested on: SF-268 CNS
MDA-N = tested on: MDA-N
A549 NSCLC = tested on: A549 NSCLC
HCT-116 colon = tested on: HCT-116 colon
SF-295 CNS = tested on: SF-295 CNS
IGROV1 ovarian = tested on: IGROV1 ovarian
OVCAR-5 ovarian = tested on: OVCAR-5 ovarian
KM12 colon = tested on: KM12 colon
DU-145 prostate = tested on: DU-145 prostate
NCI/ADR-RES ovarian = tested on: NCI/ADR-RES ovarian
SF-539 CNS = tested on: SF-539 CNS
SNB-75 CNS = tested on: SNB-75 CNS
RPMI-8226 leukemia = tested on: RPMI-8226 leukemia
NCI-H226 lung = tested on: NCI-H226 lung
HS 578T breast = tested on: HS 578T breast
MALME-3M melanoma = tested on: MALME-3M melanoma
SK-MEL-28 melanoma = tested on: SK-MEL-28 melanoma

COc1cc(/C=C/C(=O)OC2C(O)C3CC(OC(=O)c4cc(OC)c(OC)c(OC)c4)CC2N3C)cc(OC)c1OC (stereo unspecified)
TGI (HOP-92 NSCLC): > 50 µM
TGI (LOX IMVI melanoma): > 50 µM
TGI (BT-549 breast): > 50 µM
TGI (MCF7 breast): > 50 µM
TGI (M14 melanoma): > 50 µM
TGI (MOLT-4 leukemia): > 50 µM
TGI (HOP-62 NSCLC): > 50 µM
TGI (NCI-H460 lung): > 50 µM
TGI (MDA-MB-435): > 50 µM
TGI (OVCAR-4 ovarian): > 50 µM
TGI (EKVX NSCLC): > 50 µM
TGI (CCRF-CEM leukemia): > 50 µM
TGI (SR leukemia): 33.3 µM
TGI (UO-31 renal): > 50 µM
TGI (SNB-19 CNS): 39.9 µM
TGI (NCI-H522 lung): > 50 µM
TGI (HT29 colon): > 50 µM
TGI (MDA-MB-231 breast): > 50 µM
TGI (HCT-15 colon): > 50 µM
TGI (SK-MEL-5 melanoma): > 50 µM
TGI (T-47D breast): 43.7 µM
TGI (SN12C renal): > 50 µM
TGI (ACHN renal): > 50 µM
TGI (OVCAR-8 ovarian): > 50 µM
TGI (CAKI-1 renal): > 50 µM
TGI (786-0 renal): > 50 µM
TGI (HCC-2998 colon): > 50 µM
TGI (K-562 leukemia): > 50 µM
TGI (TK-10 renal): > 50 µM
TGI (PC-3 prostate): > 50 µM
TGI (UACC-257 melanoma): > 50 µM
TGI (UACC-62 melanoma): > 50 µM
TGI (U251 CNS): > 50 µM
TGI (SK-MEL-2 melanoma): > 50 µM
TGI (OVCAR-3 ovarian): > 50 µM
TGI (SK-OV-3 ovarian): > 50 µM
TGI (COLO 205 colon): 42.5 µM
TGI (RXF 393 renal): > 50 µM
TGI (NCI-H23 lung): > 50 µM
TGI (SW-620 colon): > 50 µM
TGI (A498 renal): 17.7 µM
TGI (SF-268 CNS): > 50 µM
TGI (MDA-N): > 50 µM
TGI (A549 NSCLC): > 50 µM
TGI (HCT-116 colon): > 50 µM
TGI (SF-295 CNS): > 50 µM
TGI (IGROV1 ovarian): 39.8 µM
TGI (OVCAR-5 ovarian): > 50 µM
TGI (KM12 colon): > 50 µM
TGI (DU-145 prostate): > 50 µM
TGI (NCI/ADR-RES ovarian): > 50 µM
TGI (SF-539 CNS): > 50 µM
TGI (SNB-75 CNS): > 50 µM
TGI (RPMI-8226 leukemia): > 50 µM
TGI (NCI-H226 lung): > 50 µM

C/C(=N\NC(=S)NC1CCCC1)c1ccccn1
TGI (LOX IMVI melanoma): 17.8 µM
TGI (BT-549 breast): 63.9 µM
TGI (HS 578T breast): > 100 µM
TGI (MCF7 breast): 28.7 µM
TGI (M14 melanoma): 15.7 µM
TGI (HOP-62 NSCLC): > 81.9 µM
TGI (NCI-H460 lung): > 19.9 µM
TGI (MDA-MB-435): > 75.6 µM
TGI (OVCAR-4 ovarian): > 100 µM
TGI (EKVX NSCLC): > 100 µM
TGI (UO-31 renal): 22.3 µM
TGI (SNB-19 CNS): > 100 µM
TGI (NCI-H522 lung): 42.4 µM
TGI (HT29 colon): > 100 µM
TGI (MDA-MB-231 breast): > 57.2 µM
TGI (HCT-15 colon): > 100 µM
TGI (SK-MEL-5 melanoma): 13.2 µM
TGI (T-47D breast): > 23.9 µM
TGI (SN12C renal): > 100 µM
TGI (ACHN renal): 20.1 µM
TGI (OVCAR-8 ovarian): > 22.4 µM
TGI (CAKI-1 renal): > 100 µM
TGI (786-0 renal): > 100 µM
TGI (HCC-2998 colon): > 100 µM
TGI (TK-10 renal): > 100 µM
TGI (PC-3 prostate): > 100 µM
TGI (UACC-62 melanoma): 7.8 µM
TGI (MALME-3M melanoma): > 28.6 µM
TGI (U251 CNS): > 100 µM
TGI (SK-MEL-2 melanoma): > 100 µM
TGI (OVCAR-3 ovarian): 10.3 µM
TGI (SK-OV-3 ovarian): > 100 µM
TGI (COLO 205 colon): 26.8 µM
TGI (RXF 393 renal): 29.1 µM
TGI (NCI-H23 lung): > 100 µM
TGI (SW-620 colon): > 100 µM
TGI (A498 renal): > 28 µM
TGI (SF-268 CNS): > 100 µM
TGI (MDA-N): 35.4 µM
TGI (A549 NSCLC): > 53.6 µM
TGI (HCT-116 colon): 3.48 µM
TGI (SF-295 CNS): > 43.6 µM
TGI (IGROV1 ovarian): > 44.1 µM
TGI (OVCAR-5 ovarian): > 100 µM
TGI (KM12 colon): > 83.2 µM
TGI (DU-145 prostate): > 43 µM
TGI (SF-539 CNS): 7.52 µM
TGI (SNB-75 CNS): > 100 µM
TGI (SK-MEL-28 melanoma): > 100 µM
TGI (RPMI-8226 leukemia): 1.99 µM
TGI (NCI-H226 lung): 15 µM
